# Data taken from patent publication US20250033966A1, “MANUFACTURING METHOD FOR OBTAINING NOVEL CHLORINE OXIDE COMPOSITION FROM DEGRADED HYPOCHLORITE” (HONBUSANKEI CO., LTD., priority 2018, published 2025).
# Key:
# [1] = test system: overall viable bacteria count; assay: Bactericidal effect on green onions, overall viable bacteria count; assay type: cell-based; details: green onion, immersion 30 minutes
# [2] = ORP (oxidation-reduction potential) of mixtures versus sodium hypochlorite solution of the same concentration; assay type: physicochemical; details: for ORP: Only solution
# E. coli group = assay: Bactericidal effect on green onions, E. coli group count; assay type: cell-based; details: green onion, immersion 30 minutes
smiles,measurement,setting,value
OCl [sodium hypochlorite],Overall viable bacteria count,"[1]; 200 ppm, D + 0",5.00 log CFU
same,Overall viable bacteria count,"[1]; 200 ppm, D + 1",5.72 log CFU
same,Overall viable bacteria count,"[1]; 1000 ppm, D + 0",3.57 log CFU
same,Overall viable bacteria count,"[1]; 1000 ppm, D + 1",5.61 log CFU
same,ORP,[2]; 200 ppm,554 mV
same,ORP,[2]; 1000 ppm,560 mV
same,ORP,[2]; Undiluted solution (6%),560 mV
same,ORP (oxidation-reduction potential) / oxidizing power upon dilution,[2]; diluted,no change
same,E. coli group count,"E. coli group; 200 ppm, D + 3",5.66 log CFU
same,E. coli group count,"E. coli group; 1000 ppm, D + 2",2.64 log CFU
same,E. coli group count,"E. coli group; 1000 ppm, D + 3",4.73 log CFU
